Reference: publication PMC9354243, “The Role of Tryptophan in π Interactions in Proteins: An Experimental Approach” (Journal of the American Chemical Society, 2022)

Test system: LmrR variants
Experiment: SPR of the LmrR-Dau interaction at 10 and 25 °C, all LmrR variants
Type: binding, Lactococcus lactis
Method: The thermodynamics of the LmrR–Dau interaction was recently reported to be mostly entropy driven.[21] To investigate this point in more detail the temperature dependence of the LmrR–Dau interaction was studied by surface plasmon resonance (SPR) experiments at 10 and 25 °C. […] The average ΔΔG from 6 LmrR variants is around 0.1 kJ/mol. These values imply that the temperature effects on the ΔGs are negligible, which would be in line with a low contribution of entropic factors to the Dau–LmrR interaction.
RibU. […]
MALDI-TOF. […] Spots were measured using a Voyager DE-PRO MALDI-TOF (time of flight) instrument (Applied Biosystems). The incorporation efficiency of Trp analog was calculated after measuring the peak areas of the peptide conta ining either Trp or Trp analog.
Binding assays - surface plasmon resonance (SPR). LmrR and mutants were immobilized on a CM5 sensor chip and binding of drugs was monitored using a BIACORE3000 system. The binding responses of Dau and RBF to LmrR were measured in triplicate at both 25 °C and 10 °C, in HBS-EP running buffer (10 mM HEPES, pH 7.4, 150 mM NaCl, 50 µM EDTA, and 0.005% surfactant P-20). The binding responses were corrected by subtracting the response measured in the control lane, to which a […]

In the case of `COc1cccc2c1C(=O)c1c(O)c3c(c(O)c1C2=O)C[C@@](O)(C(C)=O)C[C@@H]3O[C@H]1C[C@H](N)[C@H](O)[C@H](C)O1` [Dau, Daunomycin], the “Fold increase of binding affinity at lower temperature” value (10 °C versus 25 °C, all LmrR variants) is reported as 1.4–3.5 fold and the “Average ΔΔG (ΔG10 °C – ΔG25 °C)” value (average from 6 LmrR variants) is reported as “around 0.1 kJ/mol”.
